According to patent US9034891B2, “Bicyclic heterocyclic spiro compounds” (ISRAEL INSTITUTE FOR BIOLOGICAL RESEARCH, priority 2009, dated 2015):
Several values for one entry are separate records, joined by “and”; a condition that tells them apart may be missing. Equal values may be shown once.

Key:
M1 mAChR [1] = target: T1, M1 mAChR (Homo sapiens, UniProt P11229); experiment: αAPPs secretion in CHO cells double transfected with human APP695 and human M1 mAChR; assay type: cell-based
T1 sequence (P11229 1-460): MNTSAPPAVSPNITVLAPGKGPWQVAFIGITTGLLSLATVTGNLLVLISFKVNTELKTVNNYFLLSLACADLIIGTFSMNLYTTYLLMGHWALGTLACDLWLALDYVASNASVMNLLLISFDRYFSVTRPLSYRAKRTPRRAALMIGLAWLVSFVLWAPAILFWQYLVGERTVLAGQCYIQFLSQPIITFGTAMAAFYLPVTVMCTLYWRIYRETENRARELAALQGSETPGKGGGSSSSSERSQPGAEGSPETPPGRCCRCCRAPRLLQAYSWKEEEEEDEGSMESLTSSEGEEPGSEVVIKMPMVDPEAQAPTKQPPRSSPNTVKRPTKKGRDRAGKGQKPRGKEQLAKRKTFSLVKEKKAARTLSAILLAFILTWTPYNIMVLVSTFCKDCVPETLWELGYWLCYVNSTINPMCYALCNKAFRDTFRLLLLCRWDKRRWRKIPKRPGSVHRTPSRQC
Description: α-APPs Secretion studies following incubation with the tested compounds were performed as described in Haring, et al. J. Neurochem., 1998, 71:2094-103. […] A day later, cells were washed twice with serum free media, and treated with the test compound at various concentrations ranging from 0.1 nM to 100 μM. […] After 1 hour the conditioned medium was collected to cold Eppendorf tubes, which included a protease inhibitor cocktail (0.1 mM phenylmethylsulphonyl fluoride (PMSF); 5 μg/ml leupeptin; 5 μg/ml pepstatin and 5 units/ml aprotinin) for determining αAPPs release. The protein content of each sample was concentrated using Centricon tubes (Amicon, Beverly, Mass.). […] CHO cells double transfected with human APP695 and M1 mAChR APPs bands were probed using anti-amyloid beta protein (1:1000, monoclonal 6E10 antibody, MAB1560, Chemicon) and peroxidase-linked rabbit anti mouse IgG (1:5,000; Jackson Immuno Research, PA). PC12 cells stably transfected with M1 mAChR APPs bands were probed using the anti-Alzheimer precursor protein A4 (1:4,000; monoclonal 22C11 antibody, Boehringer Mannheim) and the peroxidase-linked rabbit anti mouse IgG (1:20,000; Jackson Immuno Research, PA). Following extensive washout, the membranes were treated with Western Lightning Chemiluminescence Reagent Plus (PerkinElmer Life Sciences, MA) followed by exposure to SuperRX film (Fuji Medical X-ray film, Tokyo, Japan). Quantitative determination of the total APPs bands was performed by Scion Image program (NIH, Bethesda, USA). Samples of control and CCh were assayed in parallel and thus enabled compilation of data from separate experiments.

5HT Transporter = 5HT Transporter (Homo sapiens, UniProt P31645); experiment: High-throughput profiling, binding at 10 μM
Chain of 5HT Transporter (P31645 whole entry, species assumed): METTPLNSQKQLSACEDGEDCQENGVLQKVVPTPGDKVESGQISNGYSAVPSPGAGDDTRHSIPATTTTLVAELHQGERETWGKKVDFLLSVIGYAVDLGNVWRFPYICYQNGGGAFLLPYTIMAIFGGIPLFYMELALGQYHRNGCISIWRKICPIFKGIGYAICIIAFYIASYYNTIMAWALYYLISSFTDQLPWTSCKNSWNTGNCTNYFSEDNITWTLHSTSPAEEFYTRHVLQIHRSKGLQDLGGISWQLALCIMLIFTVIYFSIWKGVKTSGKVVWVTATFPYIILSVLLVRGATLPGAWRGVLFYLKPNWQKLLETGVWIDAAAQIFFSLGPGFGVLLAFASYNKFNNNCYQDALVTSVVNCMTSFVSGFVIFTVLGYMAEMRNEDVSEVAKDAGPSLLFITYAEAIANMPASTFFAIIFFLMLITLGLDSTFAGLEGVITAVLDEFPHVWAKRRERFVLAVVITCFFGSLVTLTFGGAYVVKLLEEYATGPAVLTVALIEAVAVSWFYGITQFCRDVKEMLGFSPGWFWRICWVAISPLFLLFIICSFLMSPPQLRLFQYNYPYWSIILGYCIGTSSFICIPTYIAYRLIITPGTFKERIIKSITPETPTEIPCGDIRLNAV
Source text: (§1) It was specifically designed to provide information not only on potential limitations of drug candidates, but also for off-target activity identification. […] In a further extension of this study, functional studies were done on most of these receptors.

5HT2A receptor = 5HT2A receptor (Homo sapiens, UniProt P28223); experiment: High-throughput profiling, binding at 10 μM
Chain of 5HT2A receptor (P28223 whole entry): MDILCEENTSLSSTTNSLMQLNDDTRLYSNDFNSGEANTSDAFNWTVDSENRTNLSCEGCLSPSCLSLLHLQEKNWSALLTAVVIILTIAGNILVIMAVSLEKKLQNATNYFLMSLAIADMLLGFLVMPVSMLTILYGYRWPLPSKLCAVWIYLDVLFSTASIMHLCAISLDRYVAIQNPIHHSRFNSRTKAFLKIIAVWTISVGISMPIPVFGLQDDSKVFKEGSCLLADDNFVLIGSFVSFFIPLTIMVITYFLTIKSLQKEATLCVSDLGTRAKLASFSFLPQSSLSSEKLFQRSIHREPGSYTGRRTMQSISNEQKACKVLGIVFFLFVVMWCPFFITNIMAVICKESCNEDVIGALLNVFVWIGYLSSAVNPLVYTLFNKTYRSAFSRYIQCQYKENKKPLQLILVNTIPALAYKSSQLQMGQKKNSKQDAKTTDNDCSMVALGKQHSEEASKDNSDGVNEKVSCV
Source text: as §1

5HT2B Receptor = 5HT2B Receptor (Homo sapiens, UniProt P41595); experiment: High-throughput profiling, binding at 10 μM
Chain of 5HT2B Receptor (P41595 whole entry): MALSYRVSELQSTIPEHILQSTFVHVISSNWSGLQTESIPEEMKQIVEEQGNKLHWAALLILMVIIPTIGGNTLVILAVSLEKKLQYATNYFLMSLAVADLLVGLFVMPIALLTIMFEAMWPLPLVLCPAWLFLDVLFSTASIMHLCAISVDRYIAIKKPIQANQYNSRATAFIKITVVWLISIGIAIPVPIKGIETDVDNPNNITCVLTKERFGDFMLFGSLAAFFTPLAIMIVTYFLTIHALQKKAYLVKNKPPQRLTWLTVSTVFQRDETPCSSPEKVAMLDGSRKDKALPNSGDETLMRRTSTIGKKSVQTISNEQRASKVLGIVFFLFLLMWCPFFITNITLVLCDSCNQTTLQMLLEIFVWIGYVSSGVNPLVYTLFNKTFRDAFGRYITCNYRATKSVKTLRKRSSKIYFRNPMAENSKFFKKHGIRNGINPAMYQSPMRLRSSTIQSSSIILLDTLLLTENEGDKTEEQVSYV
Source text: as §1

5HT2C Receptor = 5HT2C Receptor (Homo sapiens, UniProt P28335); experiment: High-throughput profiling, binding at 10 μM
Chain of 5HT2C Receptor (P28335 33-458): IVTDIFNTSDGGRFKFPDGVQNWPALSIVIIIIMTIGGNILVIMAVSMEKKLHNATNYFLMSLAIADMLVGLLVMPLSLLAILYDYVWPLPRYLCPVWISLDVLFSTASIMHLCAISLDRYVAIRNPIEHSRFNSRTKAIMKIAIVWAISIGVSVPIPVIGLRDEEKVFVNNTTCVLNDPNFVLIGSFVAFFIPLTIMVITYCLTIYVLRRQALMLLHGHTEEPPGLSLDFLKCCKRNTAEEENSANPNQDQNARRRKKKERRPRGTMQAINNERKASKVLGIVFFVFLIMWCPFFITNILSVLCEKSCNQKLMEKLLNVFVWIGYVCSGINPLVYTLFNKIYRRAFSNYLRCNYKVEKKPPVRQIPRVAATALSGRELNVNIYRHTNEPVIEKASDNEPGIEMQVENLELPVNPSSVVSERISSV
Source text: as §1

Histamine 2 Receptor = Histamine 2 Receptor (Homo sapiens, UniProt P25021); experiment: High-throughput profiling, binding at 10 μM
Chain of Histamine 2 Receptor (P25021 whole entry): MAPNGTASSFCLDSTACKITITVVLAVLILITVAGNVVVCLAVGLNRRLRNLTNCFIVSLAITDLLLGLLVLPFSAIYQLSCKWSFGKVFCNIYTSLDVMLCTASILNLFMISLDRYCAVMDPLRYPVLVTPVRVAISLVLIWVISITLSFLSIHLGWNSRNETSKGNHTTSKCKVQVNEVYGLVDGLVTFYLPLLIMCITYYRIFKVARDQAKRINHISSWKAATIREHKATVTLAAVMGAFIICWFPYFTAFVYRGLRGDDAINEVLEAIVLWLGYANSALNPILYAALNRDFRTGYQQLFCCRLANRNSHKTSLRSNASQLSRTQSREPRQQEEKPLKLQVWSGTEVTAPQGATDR
Source text: as §1

M2 mAChR = M2 mAChR (Homo sapiens, UniProt P08172); experiment: High-throughput profiling, binding at 10 μM
Chain of M2 mAChR (P08172 whole entry): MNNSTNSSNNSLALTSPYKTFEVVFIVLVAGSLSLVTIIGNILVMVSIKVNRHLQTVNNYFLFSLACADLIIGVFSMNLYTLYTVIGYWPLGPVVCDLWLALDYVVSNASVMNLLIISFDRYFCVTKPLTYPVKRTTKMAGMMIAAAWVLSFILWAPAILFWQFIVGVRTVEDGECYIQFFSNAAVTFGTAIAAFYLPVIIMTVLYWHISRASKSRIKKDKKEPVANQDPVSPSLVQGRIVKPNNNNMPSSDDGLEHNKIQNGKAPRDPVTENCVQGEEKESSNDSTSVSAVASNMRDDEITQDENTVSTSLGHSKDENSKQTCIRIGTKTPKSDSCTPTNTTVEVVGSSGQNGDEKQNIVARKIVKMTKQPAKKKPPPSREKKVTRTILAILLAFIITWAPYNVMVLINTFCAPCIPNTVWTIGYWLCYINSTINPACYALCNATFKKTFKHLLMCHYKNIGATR
Source text: as §1

Mu Receptor = Mu Receptor (Homo sapiens, UniProt P35372); experiment: High-throughput profiling, binding at 10 μM
Chain of Mu Receptor (P35372 whole entry): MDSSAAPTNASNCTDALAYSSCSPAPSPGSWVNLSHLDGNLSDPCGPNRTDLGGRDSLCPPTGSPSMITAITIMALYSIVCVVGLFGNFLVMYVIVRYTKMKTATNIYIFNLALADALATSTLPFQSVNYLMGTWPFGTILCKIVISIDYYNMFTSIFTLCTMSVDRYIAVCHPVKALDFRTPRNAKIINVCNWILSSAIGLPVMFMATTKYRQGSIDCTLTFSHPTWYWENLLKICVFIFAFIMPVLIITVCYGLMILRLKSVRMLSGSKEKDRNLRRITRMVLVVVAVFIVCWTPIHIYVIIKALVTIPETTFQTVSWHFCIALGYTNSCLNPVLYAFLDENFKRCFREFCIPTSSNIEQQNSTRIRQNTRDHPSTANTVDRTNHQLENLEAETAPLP
Source text: as §1

Sigma Receptor = experiment: High-throughput profiling, binding at 10 μM
Source text: as §1

rats = experiment: Passive avoidance, MK-801-induced impairment in rats; assay type: in vivo, rat
Source text: Trihexyphenidyl is a selective M1 muscarinic antagonist that crosses the blood brain barrier and induces memory and learning impairments (Bymaster et al., J Pharmacol Exp. Ther. 267: 16-24, 1993; Roldan et al., Neurosci. Lett. 230: 93-96, 1997; Kimura et al., Brain Res. 834: 6-12, 1999). […] Naive Wistar rats were used in the experiments below. The passive avoidance (PA) task consists of a training (acquisition) phase and a retention phase. In the training procedure each rat was individually placed in the small illuminated compartment and after 60 s. of familiarization/adaptation, the door to the large compartment was opened and the latency to enter was measured (Initial Latency) Immediately following entry into the dark compartment, the door was closed and inescapable foot shock (0.6 mA for 3 s) was delivered through the grid floor. […] After the acquisition trial the rat was returned to its home cage. Retention of the passive avoidance task was measured 24 h later, by again placing the rat in the light compartment and after a 60 s adaptation interval, the door was opened and the latency to re-enter the dark compartment was measured. […] Two separate experiments were conducted. […] In both experiments the rats were divided into 2 groups. One main group was treated with trihexyphenidyl (5 mg/kg, s.c) and the second main group was treated with vehicle (DDW-1 ml/kg, s.c.), 30 min before the shock.
MK-801 is an NMDA antagonist that induces cognitive behavioral impairments in rodents. […] In the first experiment (dose-finding study of MK-801) rats were divided into 4 groups. Three groups (N=27) were treated with MK-801 (50, 80 or 100 μg/kg, s.c) and the fourth group (N=10) was treated with vehicle (saline-1 ml/kg, s.c.), 30 min before the shock. […] One group (N=80) was treated with MK-801 (80 μg/kg, s.c) and the second group (N=59) was treated with the vehicle (saline-1 ml/kg, s.c.).

M1 mAChR [2] = target: T1, M1 mAChR; experiment: Intracellular Ca2+ mobilization (Fluo-4 NW) in cells stably transfected with M1 mAChR; assay type: cell-based; set-up: expressed in transfected cells; settings: 100 μM; mobilization of intracellular Ca ions
Source text: On the day of experiment, cells were fully confluent.
To evaluate selectivity for a subtype of mAChR, in particular the M1 mAChR vs. M3 and MS mAChR, the assays were calibrated using ligands that have a combined activity, e.g. M1 agonistic and M3 antagonistic or M1 agonistic and MS antagonistic profiles, respectively. This can eliminate effects due to different receptor reserves in cell-based assays.

Structure (SMILES): C[C@@H]1SC2(CCN(C)CC2)CN1C(=O)CCc1c[nH]c2ccccc12 (single isomer, unassigned) [AF710B]
- release of αAPPs (M1 mAChR [1]; CHO cells, 0.1 nM to 1 μM): enhanced the release of αAPPs
- maximal αAPPs secretion in comparison to untreated control cells (M1 mAChR [1]; doubly-transfected CHO cells, AF710B at 0.01 μM, AF710 at 0.1 μM, AF710A at 1 μM): 225%
- binding to 5HT Transporter (5HT Transporter): binds
- binding to 5 HT2A Receptor (5HT2A receptor): binds
- binding to 5HT2B Receptor (5HT2B Receptor): binds
- binding to 5HT2C Receptor (5HT2C Receptor): binds
- binding to Histamine 2 Receptor (Histamine 2 Receptor): binds
- binding to M2 mAChR (M2 mAChR): binds
- binding to Mu Receptor (Mu Receptor): binds
- binding to Sigma Receptor (Sigma Receptor): binds
- retention latency (rats; 10 μg/kg po, MK-801 80 μg/kg sc, MK-801+DDW 94.7±24.7): 336.3 ± 70 s and 336.3 ± 70.0 s
- retention latency (rats; 30 μg/kg po, MK-801 80 μg/kg sc): 370.0 ± 60 s and 370.0 ± 57.0 s
- retention latency (rats; 100 μg/kg po, MK-801 80 μg/kg sc): 325.6 ± 66.6 s
- retention latency vs. MK-801 rats treated with DDW (rats; 1, 3 and 5 or 300 μg/kg, po): not significantly different
- retention latency (rats; AF710B 10 μg/kg with NE-100 1 mg/kg, MK801 80 μg/kg): 184.8 ± 58.0 s
- retention latency (rats; AF710B 30 μg/kg with NE-100 1 mg/kg, MK801 80 μg/kg): 227.3 ± 38.5 s
- cognitive enhancer dose range (rats; po, MK801-induced passive avoidance impairment): 10 to 100 µg/kg
- M1 agonist at 100 μM vs. carbachol (full muscarinic agonist, 100%) (M1 mAChR [2]): 66%
